Earlier results, collected in patent US20080104001A1, “ALGORITHM FOR ESTIMATION OF BINDING EQULIBRIA IN INCLUSION COMPLEXATION, HOST COMPOUNDS IDENTIFIED THEREBY AND COMPOSITIONS OF HOST COMPOUND AND PHARMACEUTICAL” (priority 2006, published 2008).
Where two headings read alike, the source gives them in different places.

Legend:
[1] = for Log K(1:1) Measured: cross-validation set, literature values
[2] = by itself, without cyclodextrin
[3] = training set, published stability constants (Connors, 1995)
[4] = validation set, known binding constants

Row | SMILES | Log K(1:1) [1, 3] | also measured
1 | Cc1cccc(C)c1C [1,2,3-trimethylbenzene] | 2.26 | –
2 | Cc1ccc(C)c(C)c1 [1,2,4-trimethylbenzene] | 2.94 | –
3 | Oc1ccccc1O [1,2-benzenediol] | 2.04 | –
4 | Oc1cccc(O)c1 [1,3-benzenediol] | 2.04 | –
5 | Ic1ccc(I)cc1 [1,4 diiodobenzene] | – | Log K(1:1) Measured [1]: 3.18
6 | Oc1ccc(O)cc1 [1,4-benzenediol] | 2.09 | Log K(1:1) [1, 4]: 2.09
7 | Brc1ccc(Br)cc1 [1,4-dibromobenzene] | 2.97 | –
8 | Clc1ccc(Cl)cc1 [1,4-dichlorobenzene] | 2.51 | –
9 | Fc1ccc(F)cc1 [1,4-difluorobenzene] | 1.6 | –
10 | Cc1ccc(C)c2ccccc12 [1,4-dimethylnaphthalene] | 2.54 | –
11 | Cc1cccc2c(C)cccc12 [1,5-dimethylnaphthalene] | 2.3 | –
12 | O=C(O)C12CC3CC(CC(C3)C1)C2 [1-adamantanecarboxylic-acid] | 5.81 | –
13 | O=C(O)C12CCC(CC1)C2 [1-bicyclo[2.2.1]heptanecarboxylic acid] | – | Log K(1:1) Measured [1]: 4.18
14 | CC(C)c1ccccc1 [1-methylethylbenzene] | 3.08 | –
15 | Cc1cccc2ccccc12 [1-methylnaphthalene] | 2.64 | –
16 | Oc1cccc2ccccc12 [1-naphthol] | 2.09 | –
17 | CCCCCCCCO [1-octanol] | 3.29 | –
18 | CCCCCO [1-pentanol] | 1.97 | –
19 | CC(C)(C)CO [2,2-dimethylpropanol] | – | Log K(1:1) [1, 4]: 2.69
20 | Cc1ccc2ccccc2c1 [2-methylnaphthalene] | 2.85 | –
21 | Cc1ccccc1O [2-methylphenol] | 2.12 | –
22 | Oc1ccc2ccccc2c1 [2-naphthol] | 2.77 | –
23 | CCCCCCC(C)O (stereo not shown) [2-octanol] | 3.13 | –
24 | CCCC(C)O (stereo not shown) [2-pentanol] | 1.65 | –
25 | O=C(O)c1cccc(O)c1 [3-hydroxybenzoic acid] | – | Log K(1:1) Measured [1]: 2.46

Row | SMILES | Log K(1:1) [1, 3] | also measured
26 | CC(C)CCO [3-methyl-1-butanol] | 2.21 | –
27 | Cc1cccc(O)c1 [3-methylphenol] | 2.34 | Log K(1:1) [1, 4]: 2.34
28 | Nc1ccc(C(=O)O)cc1 [4-aminobenzoic acid] | – | Log K(1:1) Measured [1]: 2.70
29 | CCC1(CC)C(=O)NC(=S)NC1=O [5,5-diethyl-2-thiobarbituric acid] | 2.47 | –
30 | CCCCCCCC1(CC)C(=O)NC(=O)NC1=O [5-ethyl-5-heptylbarbituric acid] | 3.61 | –
31 | CCCCCC1(CC)C(=O)NC(=O)NC1=O [5-ethyl-5-pentylbarbituric acid] | 3.1 | –
32 | CCCC1(CC)C(=O)NC(=O)NC1=O [5-ethyl-5-propylbarbituric acid] | 2.19 | –
33 | c1cc2c3c(cccc3c1)CC2 [Acenaphthene] | – | Log K(1:1) [1, 4]: 2.01
34 | C1=Cc2cccc3cccc1c23 [Acenaphthylene] | 2.41 | –
35 | CC(=O)Nc1ccc(O)cc1 [Acetaminophen] | – | Log K(1:1) [1, 4]: 2.03
36 | c1ccc2nc3ccccc3cc2c1 [Acridine] | 2.46 | –
37 | Nc1ccccc1 [Aniline] | 1.89 | –
38 | COc1ccccc1 [Anisole] | 2.14 | –
39 | NC(=O)N1c2ccccc2C=Cc2ccccc21 [Carbamazepine] | – | Log K(1:1) Measured [1]: 2.83
40 | C[C@]12CCC(=O)C=C1CC[C@@H]1[C@@H]2C(=O)C[C@@]2(C)[C@H]1CC[C@]2(O)C(=O)CO [Cortisone] | 3.39 | –
41 | CCC1(C2=CCCCC2)C(=O)NC(=O)NC1=O [Cyclobarbital] | 3.11 | –
42 | OC1CCCCC1 [Cyclohexanol] | 2.75 | –
43 | C1CCCCCCC1 [Cyclooctane] | 3.23 | –
44 | OC1CCCCCCC1 [Cyclooctanol] | – | Log K(1:1) [1, 4]: 3.3
45 | O=C(O)Cc1ccccc1Nc1c(Cl)cccc1Cl [Diclofenac] | 2.18 | –
46 | CN[C@@H](C)[C@H](O)c1ccccc1 [Ephedrine] | – | Log K(1:1) Measured [1]: 2.25; Log K(1:1) [1, 4]: 2.25
47 | FF [Fluorine] | – | Log K(1:1) [1, 4]: 3.13
48 | CCCCCCC [Heptane] | 1.84 | –
49 | C[C@]12CCC(=O)C=C1CC[C@@H]1[C@@H]2[C@@H](O)C[C@@]2(C)[C@H]1CC[C@]2(O)C(=O)CO [Hydrocortisone] | – | Log K(1:1) [1, 4]: 3.46
50 | CCN(CC)c1ccccc1 [N,N-diethylaniline] | 2.96 | –

Row | SMILES | Log K(1:1) [1, 3] | also measured
51 | c1ccc2ccccc2c1 [Naphthalene] | – | Log K(1:1) [1, 4]: 2.87
52 | O=C1NC(=O)C(c2ccccc2)(c2ccccc2)N1 [Phenytoin] | 2.93 | –
53 | C[C@]12C=CC(=O)C=C1CC[C@@H]1[C@@H]2[C@@H](O)C[C@@]2(C)[C@H]1CC[C@]2(O)C(=O)CO [Prednisolone] | 3.45 | –
54 | CC(=O)[C@H]1CC[C@H]2[C@@H]3CCC4=CC(=O)CC[C@]4(C)[C@H]3CC[C@]12C [Progesterone] | 4.28 | –
55 | C=CCC1(C(C)CCC)C(=O)NC(=O)NC1=O (stereo not shown) [Secobarbital] | 3.26 | –
56 | C[C@]12CC[C@H]3[C@@H](CCC4=CC(=O)CC[C@@]43C)[C@@H]1CC[C@@H]2O [Testosterone] | 3.8 | –
57 | C[C@]12C=CC(=O)C=C1CC[C@H]1[C@@H]3C[C@@H](O)[C@](O)(C(=O)CO)[C@@]3(C)C[C@H](O)[C@@]12F [Triamcinolone] | 3.37 | –
58 | CC(=O)Oc1ccccc1C(=O)O [acetylsalicylic acid] | – | Log K(1:1) [1, 4]: 3.23
59 | c1ccc2cc3ccccc3cc2c1 [anthracene] | 3.41 | –
60 | c1ccccc1 [benzene] | 2.17 | –
61 | Nc1ccc(-c2ccc(N)cc2)cc1 [benzidine] | – | Log K(1:1) Measured [1]: 3.36
62 | c1ccc2c(c1)cc1ccc3cccc4ccc2c1c34 [benzo[a]pyrene] | 3.34 | –
63 | O=C(c1ccccc1)c1ccccc1 [benzophenone] | 3.08 | –
64 | OCc1ccccc1 [benzyl alcohol] | 1.7 | –
65 | CCCCC(=O)O[C@]1(C(=O)CO)[C@@H](C)C[C@H]2[C@@H]3CCC4=CC(=O)C=C[C@]4(C)[C@@]3(F)[C@@H](O)C[C@@]21C [betamethasone-17-valerate] | 3.32 | –
66 | Brc1ccccc1 [bromobenzene] | 2.49 | –
67 | CCCCOC(=O)c1ccc(O)cc1 [butylparaben] | 3.32 | –
68 | Clc1ccccc1 [chlorobenzene] | 2.2 | –
69 | O=C(O)C=Cc1ccccc1 [cinnamic acid] | – | Log K(1:1) [1, 4]: 2.57
70 | CN1C(=O)CC(=O)N(c2ccccc2)c2cc(Cl)ccc21 [clobazam] | – | Log K(1:1) Measured [1]: 1.73
71 | O=C1CN=C(c2ccccc2Cl)c2cc([N+](=O)[O-])ccc2N1 [clonazepam] | – | Log K(1:1) Measured [1]: 1.9
72 | CC(=O)OCC(=O)[C@@]1(O)CC[C@H]2[C@@H]3CCC4=CC(=O)CC[C@]4(C)[C@H]3C(=O)C[C@@]21C [cortisone acetate] | 3.62 | –
73 | OC1CCC1 [cyclobutanol] | – | Log K(1:1) Measured [1]: 1.18
74 | C1CCCCC1 [cyclohexane] | 2.19 | –
75 | O=C1CCCCC1 [cyclohexanone] | 2.71 | –

Row | SMILES | Log K(1:1) [1, 3] | also measured
76 | C1CCCC1 [cyclopentane] | 1.95 | –
77 | CCCCCCCCCC(=O)O [decanoic acid] | – | Log K(1:1) [1, 4]: 3.97
78 | c1ccc(Nc2ccccc2)cc1 [diphenylamine] | 3.03 | –
79 | CCOC(=O)c1ccc(N)cc1 [ethyl-p-aminobenzoate] | – | Log K(1:1) [1, 4]: 2.69
80 | Fc1ccccc1 [fluorobenzene] | 1.85 | –
81 | CC(C(=O)O)c1ccc(-c2ccccc2)c(F)c1 (stereo not shown) [flurbiprofen] | 3.71 | –
82 | CC(=O)OCC(COC(C)=O)OC(C)=O [glyceryl triacetate] | – | Log K(1:1) [1, 4]: 1.15
83 | CCCCCC(=O)O [hexanoic acid] | 2.47 | –
84 | CC(=O)OCC(=O)[C@@]1(O)CC[C@H]2[C@@H]3CCC4=CC(=O)CC[C@]4(C)[C@H]3[C@@H](O)C[C@@]21C [hydrocortisone-21-acetate] | – | Log K(1:1) [1, 4]: 3.51
85 | COc1ccc2c(c1)c(CC(=O)O)c(C)n2C(=O)c1ccc(Cl)cc1 [indomethacin] | – | Log K(1:1) Measured [1]: 2.72
86 | Ic1ccccc1 [iodobenzene] | 2.9 | –
87 | CCC(C)n1ncn(-c2ccc(N3CCN(c4ccc(OCC5COC(Cn6cncn6)(c6ccc(Cl)cc6Cl)O5)cc4)CC3)cc2)c1=O (stereo not shown) [itraconazole] | – | aqueous solubility [2]: less than 0.1 microgram/mL
88 | CCC1(CC)C(=O)NC(=O)N(C)C1=O [metharbital] | 2.36 | –
89 | C1COCCN1 [morpholine] | 1.23 | –
90 | c1ccc2cc3cc4ccccc4cc3cc2c1 [naphthacene] | 3.53 | –
91 | O=C(O)c1ccc(O)cc1 [p-hydroxybenzoic-acid] | 3.03 | Log K(1:1) Measured [1]: 3.03
92 | Cc1ccc(C(=O)O)cc1 [p-toluic acid] | – | Log K(1:1) [1, 4]: 3.23
93 | c1ccc2c(c1)ccc1ccccc12 [phenanthrene] | 3.18 | –
94 | O=C1OC(c2ccc(O)cc2)(c2ccc(O)cc2)c2ccccc21 [phenolphthalein] | 4.56 | –
95 | CC(=O)OCC(=O)[C@@]1(O)CC[C@H]2[C@@H]3CCC4=CC(=O)C=C[C@]4(C)[C@H]3[C@@H](O)C[C@@]21C [prednisolone-21-acetate] | 3.76 | –
96 | CCCOC(=O)c1ccc(O)cc1 [propylparaben] | 2.97 | –
97 | c1cc2ccc3cccc4ccc(c1)c2c34 [pyrene] | 2.45 | –
98 | O=C(O)c1ccccc1O [salicylic-acid] | 2.63 | –
99 | ClC(Cl)(Cl)Cl [tetrachloromethane] | 2.18 | –
